We go through 52 compounds from patent US9550778B2, “Substituted 6-aryl-imidazopyridine and 6-aryl-triazolopyridine carboxamide analogs as negative allosteric modulators of mGluR5” (Vanderbilt University, priority 2014, dated 2017).

Bounds are passed on as bounds.

Data set [1] concerns the target rat mGluR5 (Rattus norvegicus (Rat), UniProt P31424). Put plainly: Calcium mobilization assay in HEK 293A cells stably expressing rat mGluR5. Particulars: for IC50: HEK cells transfected with rat mGluR5, inhibition of glutamate EC80 response, ± standard error where average of at least three experiments; for remaining activity at 30 µM: HEK293-A, amplitude of response in the presence of 30 μM test compound as a percentage of maximal response (100 μM glutamate), read-out: % Glu Max. The class given is cell-based. How it is done: The cells were grown overnight at 37° C. in the presence of 5% CO2. […] Dye was removed, 20 μL of assay buffer was added, and the plate was incubated for 5 minutes at room temperature.
Ca^2+ flux was measured using the Functional Drug Screening System (FDSS7000, Hamamatsu, Japan). After establishment of a fluorescence baseline for about 3 seconds, the compounds of the present invention were added to the cells, and the response in cells was measured. 2.3 minutes later an EC20 concentration of the mGluR5 receptor agonist glutamate was added to the cells, and the response of the cells was measured for 1.9 minutes; an EC80 concentration of agonist was added and readings taken for an additional 1.7 minutes. All test compounds were dissolved and diluted to a concentration of 10 mM in 100% DMSO. Compounds were then serially diluted 1:3 in DMSO into 10 point concentration response curves, transferred to daughter plates, and further diluted into assay buffer to a 2× stock. Calcium fluorescence measures were recorded as fold over basal fluorescence; raw data was then normalized to the maximal response to glutamate.
The raw data file containing all time points was used as the data source in the analysis template. This was saved by the FDSS as a tab-delimited text file. Data were normalized using a static ratio function (F/F0) for each measurement of the total 360 values per well divided by each well's initial value. Data were then reduced to peak amplitudes (Max−Initial Min) using a time range that starts approximately 3 seconds prior to the glutamate EC20/EC80 addition and continues for approximately 90-120 seconds. This is sufficient time to capture the peak amplitude of the cellular calcium response. Individual amplitudes were expressed as % EMax by multiplying each amplitude by 100 and then dividing the product by the mean of the amplitudes derived from the glutamate ECMax-treated wells. IC50 values for test compounds were generated by fitting the normalized values versus the log of the test compound concentration (in mol/L) using a 4 parameter logistic equation where none of the parameters were fixed. Each of the three values collected at each concentration of test compound were weighted evenly.
The mGluR5 activity was determined using the calcium mobilization assays in human embryonic kidney cells as described herein below, wherein the human embryonic kidney cells were transfected with rat mGluR5. The mGluR5 activity data for some compounds are shown as the average of at least three experiments with the standard error in these cases. If no error is indicated for the mGluR5 activity, the values given represent the results from a single experiment or the average of two experiments. The compounds in Table 1 were synthesized with methods identical or analogous to those shown herein. The requisite starting materials were commercially available, described in the literature, or readily synthesized by one skilled in the art of organic synthesis.
GluMax is the amplitude of response in the presence of 30 μM test compound as a percentage of maximal response (100 μM glutamate). Partial antagonists display concentration-response curves (CRCs) that plateau above 10%.
On the technique in general: Calcium assays in cells follow changes in intracellular calcium, usually with a dye or a luminescent sensor.

Data set [2] concerns N-methyl-D-aspartate (NMDA) receptor. The following applies: at higher concentrations; cited from earlier work.
Data set [3] deals with mGluR4 (Homo sapiens (Human), UniProt Q14833). Particulars: cited from earlier work.
Data set [4] deals with cytochrome P450 1A2 (Homo sapiens (Human), UniProt P05177). Particulars: cited from earlier work.
For data set [5] the following is noted: intravenous administration, rhesus monkeys; cited from earlier work.

Sequence of rat mGluR5 (P31424 21-1203): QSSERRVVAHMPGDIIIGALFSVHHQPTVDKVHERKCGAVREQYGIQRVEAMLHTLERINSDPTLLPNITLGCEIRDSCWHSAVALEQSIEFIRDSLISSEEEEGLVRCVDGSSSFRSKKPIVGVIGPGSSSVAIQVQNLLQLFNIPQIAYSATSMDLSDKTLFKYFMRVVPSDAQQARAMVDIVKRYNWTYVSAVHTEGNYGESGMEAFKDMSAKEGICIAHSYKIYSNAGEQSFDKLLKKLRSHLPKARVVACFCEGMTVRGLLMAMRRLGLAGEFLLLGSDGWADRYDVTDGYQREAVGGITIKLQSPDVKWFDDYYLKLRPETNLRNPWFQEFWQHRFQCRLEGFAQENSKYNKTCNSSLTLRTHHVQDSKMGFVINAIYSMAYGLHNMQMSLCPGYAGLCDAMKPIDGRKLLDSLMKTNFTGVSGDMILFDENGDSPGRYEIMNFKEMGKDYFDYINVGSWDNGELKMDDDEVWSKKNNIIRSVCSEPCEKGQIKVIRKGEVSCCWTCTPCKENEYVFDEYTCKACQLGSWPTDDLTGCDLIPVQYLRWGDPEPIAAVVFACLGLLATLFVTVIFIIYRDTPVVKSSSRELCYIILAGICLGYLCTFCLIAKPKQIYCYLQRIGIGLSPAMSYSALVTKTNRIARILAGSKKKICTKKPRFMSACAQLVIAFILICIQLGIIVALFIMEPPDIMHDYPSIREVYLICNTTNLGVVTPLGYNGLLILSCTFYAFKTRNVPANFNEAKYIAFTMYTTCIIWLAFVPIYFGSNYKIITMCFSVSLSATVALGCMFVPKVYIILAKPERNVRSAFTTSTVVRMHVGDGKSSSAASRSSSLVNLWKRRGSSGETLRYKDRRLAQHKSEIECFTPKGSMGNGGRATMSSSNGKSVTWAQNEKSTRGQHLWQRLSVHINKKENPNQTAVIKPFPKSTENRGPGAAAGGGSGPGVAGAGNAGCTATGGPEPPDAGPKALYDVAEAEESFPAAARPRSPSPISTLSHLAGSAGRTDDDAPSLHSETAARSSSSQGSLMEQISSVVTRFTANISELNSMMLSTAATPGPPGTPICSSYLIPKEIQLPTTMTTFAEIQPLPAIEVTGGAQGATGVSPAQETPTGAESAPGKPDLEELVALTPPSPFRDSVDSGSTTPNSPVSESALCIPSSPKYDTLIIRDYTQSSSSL
Sequence of cytochrome P450 1A2 (P05177 whole entry, species assumed): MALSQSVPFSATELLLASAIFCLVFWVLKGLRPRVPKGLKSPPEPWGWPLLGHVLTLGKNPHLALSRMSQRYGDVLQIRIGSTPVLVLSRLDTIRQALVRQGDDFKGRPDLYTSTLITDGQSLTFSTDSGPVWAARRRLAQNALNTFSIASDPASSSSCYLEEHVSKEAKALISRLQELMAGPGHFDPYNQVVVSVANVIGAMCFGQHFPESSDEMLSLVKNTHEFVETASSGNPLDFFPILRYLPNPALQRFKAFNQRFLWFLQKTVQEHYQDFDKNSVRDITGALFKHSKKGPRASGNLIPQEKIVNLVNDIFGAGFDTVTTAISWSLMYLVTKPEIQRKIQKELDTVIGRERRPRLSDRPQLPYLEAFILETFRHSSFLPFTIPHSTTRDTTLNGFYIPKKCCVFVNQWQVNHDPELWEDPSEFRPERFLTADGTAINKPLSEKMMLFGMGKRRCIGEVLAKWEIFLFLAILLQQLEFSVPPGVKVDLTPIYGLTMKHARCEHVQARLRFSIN
Sequence of mGluR4 (Q14833 33-912): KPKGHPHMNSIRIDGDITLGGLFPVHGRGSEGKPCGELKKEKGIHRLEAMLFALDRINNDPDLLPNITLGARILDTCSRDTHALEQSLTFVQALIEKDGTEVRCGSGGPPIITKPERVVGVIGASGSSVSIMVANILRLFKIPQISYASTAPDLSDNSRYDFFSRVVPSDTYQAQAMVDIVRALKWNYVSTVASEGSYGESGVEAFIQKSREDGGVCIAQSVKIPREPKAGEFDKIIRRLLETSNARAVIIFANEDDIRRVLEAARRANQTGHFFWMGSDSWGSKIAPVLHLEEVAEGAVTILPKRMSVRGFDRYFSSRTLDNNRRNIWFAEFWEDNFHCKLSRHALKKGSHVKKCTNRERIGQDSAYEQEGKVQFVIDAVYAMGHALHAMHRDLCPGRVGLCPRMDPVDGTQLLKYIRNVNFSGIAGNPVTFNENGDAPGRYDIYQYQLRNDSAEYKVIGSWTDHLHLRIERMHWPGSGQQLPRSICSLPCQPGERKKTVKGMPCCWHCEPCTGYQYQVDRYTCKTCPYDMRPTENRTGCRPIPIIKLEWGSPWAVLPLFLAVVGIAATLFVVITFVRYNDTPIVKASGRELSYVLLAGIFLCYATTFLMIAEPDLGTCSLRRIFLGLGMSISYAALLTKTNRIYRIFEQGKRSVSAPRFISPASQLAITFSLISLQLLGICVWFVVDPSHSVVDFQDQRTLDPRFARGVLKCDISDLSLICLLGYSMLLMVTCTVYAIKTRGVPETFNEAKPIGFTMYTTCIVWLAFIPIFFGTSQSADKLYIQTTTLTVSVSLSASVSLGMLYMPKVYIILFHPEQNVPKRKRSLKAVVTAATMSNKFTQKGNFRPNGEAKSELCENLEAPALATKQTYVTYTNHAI

On to `CCc1cccc(NC(=O)c2cc(-c3cnccc3C)cn3ncnc23)n1`, for which the IC50 – broadly, the concentration that gives 50% inhibition – in data set [1] is 1760 nM.
In the case of `Cc1ccc(NC(=O)c2cc(-c3cnccc3C)cn3ncnc23)nc1`, the IC50 in data set [1] was 325 nM.
Regarding `Cc1ccncc1-c1cc(C(=O)Nc2ccc(F)cn2)c2ncnn2c1`, in data set [1], the remaining activity at 30 µM came to 52% and the IC50 is over 10000 nM.
For the compound `Cc1ccncc1-c1cc(C(=O)Nc2ccccn2)c2ncnn2c1`, the IC50 in data set [1] was 358 nM.
With `COc1ccc(NC(=O)c2cc(-c3cnccc3C)cn3ncnc23)nc1`, the half-maximal inhibitory concentration (IC50) in data set [1] is 1310 nM.
Consider `Cc1cccc(NC(=O)c2cc(-c3cnccc3C)cn3ncnc23)n1`, for which the half-inhibitory concentration (IC50) in data set [1] turned out to be 793 nM.
In the case of `COc1cccc(NC(=O)c2cc(-c3cnccc3C)cn3ncnc23)n1`, in data set [1], the remaining activity at 30 µM worked out at 31% and the half-inhibitory concentration (IC50) was over 10000 nM.
`Cc1csc(NC(=O)c2cc(-c3cnccc3C)cn3ncnc23)n1`: the IC50 in data set [1] worked out at 170 nM.
The same measure, in the same setting: then `Cc1csc(NC(=O)c2cc(-c3ccccc3)cn3ncnc23)n1`, with 385 nM.
With `Cc1csc(NC(=O)c2cc(-c3ccc4ncccc4c3)cn3ncnc23)n1`, in data set [1], the remaining activity at 30 µM worked out at 74% and the IC50 is over 10000 nM.
For the compound `Cc1csc(NC(=O)c2cc(-c3cccnc3)cn3ncnc23)n1`, in data set [1], the IC50 turned out to be 587 nM.
Take `Cc1csc(NC(=O)c2cc(-c3cc(C)nn3C)cn3ncnc23)n1`: the IC50 in data set [1] worked out at 690 nM.
As to `Cc1cccc(-c2cc(C(=O)Nc3nc(C)cs3)c3ncnn3c2)c1`, the half-inhibitory concentration (IC50) in data set [1] is 4770 nM.
Same read-out and setting: the same measure for `Cc1csc(NC(=O)c2cc(-c3ccc4occc4c3)cn3ncnc23)n1`: over 30000 nM; for `Cc1csc(NC(=O)c2cc(-c3cnc(F)c(C)c3)cn3ncnc23)n1`: 2810 nM; for `Cc1csc(NC(=O)c2cc(-c3cccc4c3cnn4C)cn3ncnc23)n1`: 7020 nM.
On the same count and under the same terms, the same measure for `Cc1cc(-c2cc(C(=O)Nc3nc(C)cs3)c3ncnn3c2)ccn1`: 10000 nM.
Turning to `COc1cnc(-c2cc(C(=O)Nc3nc(C)cs3)c3ncnn3c2)cn1`, in data set [1], the remaining activity at 30 µM is 71% and the half-maximal inhibitory concentration (IC50) was over 10000 nM.
Consider `Cc1csc(NC(=O)c2cc(-c3cn(C)nc3C)cn3ncnc23)n1`, for which the concentration for half-maximal inhibition (IC50) in data set [1] was 2160 nM.
Turning to `Cc1csc(NC(=O)c2cc(-c3ccc(F)nc3)cn3ncnc23)n1`, in data set [1], the half-inhibitory concentration (IC50) is 4930 nM.
The same measure, in the same setting: the same measure for `Cc1csc(NC(=O)c2cc(-c3cccnc3F)cn3ncnc23)n1`: 978 nM.
With `Cc1csc(NC(=O)c2cc(-c3ccc4c(ccn4C)c3)cn3ncnc23)n1`, in data set [1], the remaining activity at 30 µM was determined as 27% and the concentration for half-maximal inhibition (IC50) was over 10000 nM.
In the same order, the values of `Cc1csc(NC(=O)c2cc(-c3ccc4c(cnn4C)c3)cn3ncnc23)n1` are 53% and over 10000 nM.
In the same order, the values of `Cc1csc(NC(=O)c2cc(-c3cc4ccccc4o3)cn3ncnc23)n1` are 39% and over 10000 nM.
For `Cc1csc(NC(=O)c2cc(-c3cccc4cnn(C)c34)cn3ncnc23)n1`, in data set [1], the concentration for half-maximal inhibition (IC50) worked out at 10200 nM.
As to `Cc1csc(NC(=O)c2cc(-c3ccc4cnn(C)c4c3)cn3ncnc23)n1`, in data set [1], the remaining activity at 30 µM turned out to be 30% and the 50% inhibitory concentration (IC50) is over 10000 nM.
As for `Cc1cncc(-c2cc(C(=O)Nc3nc(C)cs3)c3ncnn3c2)c1`, the 50% inhibitory concentration (IC50) in data set [1] was found to be 1500 nM.
In the case of `Cc1cc(C)cc(-c2cc(C(=O)Nc3nc(C)cs3)c3ncnn3c2)c1`, in data set [1], the remaining activity at 30 µM worked out at 57% and the 50% inhibitory concentration (IC50) was over 10000 nM.
With `Cc1csc(NC(=O)c2cc(-c3ccccc3C)cn3ncnc23)n1`, the half-inhibitory concentration (IC50) in data set [1] was found to be 7940 nM.
The same measure, in the same setting: then `COc1ccc(C)c(-c2cc(C(=O)Nc3nc(C)cs3)c3ncnn3c2)c1`, with 7100 nM; and `Cc1csc(NC(=O)c2cc(-c3cnccc3C3CC3)cn3ncnc23)n1`, with 1010 nM; and `CCc1ccncc1-c1cc(C(=O)Nc2nc(C)cs2)c2ncnn2c1`, with 984 nM.
The same measure, in the same setting: then `Cc1csc(NC(=O)c2cc(-c3cccc(F)c3)cn3ncnc23)n1`, with 788 nM.
Regarding `Cc1csc(NC(=O)c2cc(-c3cnn(C)c3)cn3ncnc23)n1`, in data set [1], the remaining activity at 30 µM is 30% and the IC50 was over 10000 nM.
`Cc1csc(NC(=O)c2cc(-c3ccnn3C)cn3ncnc23)n1`: the IC50 in data set [1] was 378 ± 17 nM.
Still for that read-out and setting: then `CCn1nccc1-c1cc(C(=O)Nc2nc(C)cs2)c2ncnn2c1`, with 3920 nM; and `Cc1csc(NC(=O)c2cc(-c3cncnc3)cn3ncnc23)n1`, with 758 ± 280 nM.
On the same count and under the same terms, then `Cc1cc(-c2cc(C(=O)Nc3nc(C)cs3)c3ncnn3c2)[nH]n1`, with 60 ± 8 nM; and `Cc1csc(NC(=O)c2cc(-c3ccncc3)cn3ncnc23)n1`, with 8070 nM.
For `Cc1csc(NC(=O)c2cc(-c3ccnnc3)cn3ncnc23)n1`, in data set [1], the remaining activity at 30 µM is 27% and the half-inhibitory concentration (IC50) was over 10000 nM.
For `Cc1csc(NC(=O)c2cc(-c3cnncc3C)cn3ncnc23)n1`, in data set [1], the 50% inhibitory concentration (IC50) is 2910 nM.
With `Cc1csc(NC(=O)c2cc(-c3ccn(C)n3)cn3ncnc23)n1`, in data set [1], the remaining activity at 30 µM turned out to be 70% and the 50% inhibitory concentration (IC50) was over 10000 nM.
As for `Cc1cc(-c2cc(C(=O)Nc3ccccn3)c3nccn3c2)[nH]n1`, the IC50 in data set [1] came out at 1140 nM.
Same read-out and setting: the same measure for `Cc1cc(-c2cc(C(=O)Nc3nc(C)cs3)c3nccn3c2)[nH]n1`: 1410 nM.
Consider `Cc1ccc(NC(=O)c2cc(-c3cc(C)n[nH]3)cn3ccnc23)nc1`, for which the 50% inhibitory concentration (IC50) in data set [1] is 5110 nM.
Turning to `Cc1cc(-c2cc(C(=O)Nc3ccc(F)cn3)c3nccn3c2)[nH]n1`, the half-inhibitory concentration (IC50) in data set [1] turned out to be 3930 nM.
Same read-out and setting: the same measure for `Cc1cc(-c2cc(C(=O)Nc3ccc(F)cn3)c3ncnn3c2)n(C)n1`: 2130 nM.
The same measure, in the same setting: then `Cc1cc(-c2cc(C(=O)Nc3cccc(F)n3)c3ncnn3c2)n(C)n1`, with 835 nM.
Still for that read-out and setting: the same measure for `Cn1nccc1-c1cc(C(=O)Nc2ccc(F)cn2)c2nncn2c1`: 1450 nM; for `Cc1cc(-c2cc(C(=O)Nc3ccc(F)cn3)c3ncnn3c2)[nH]n1`: over 30000 nM.
Consider `Cc1cccc(C#Cc2ccccc2)n1` [MPEP, 2-methyl-6-(phenylethynyl)pyridine], for which, in data set [2], the “inhibition of NMDA receptor activity” value is reported as “directly inhibit”. Moreover, the “activity at mGluR4” value in data set [3] was “positive allosteric modulator”.
With `Cc1nc(C#Cc2cccnc2)cs1` [MTEP, 3-[(2-methyl-1,3-thiazol-4-yl)ethynyl]pyridine], the “inhibition of cytochrome P450 1A2” value in data set [4] was “potent inhibitor”. Also, the clearance entry in data set [5] is reported as “efficiently cleared”.
